Where two headings read alike, the source gives them in different places.
What was measured:
[1] = test system: OC43; experiment: OC43 Huh7 CPE assay (cytopathic experiment); assay type: cell-based, coronavirus OC43 (HCoV-OC43); conditions: for EC50: read-out: OC43 Huh7 CPE assay (μM) EC50; for EC90: read-out: OC43 Huh7 CPE assay (μM) EC90
Experimental: (§1) Cells were seeded into microplates at a certain density and cultured overnight in a incubator at 5% CO2, 37° C. The next day, double-diluted compound and virus were added. It was set up a cell control group (cells without treatment with a compound or virus infection), a virus control group (cells infected with virus, no compound treatment) and a culture medium control group (medium only). Cells were cultured in the incubator for 3 days (229E) or 7 days (OC43). Cytotoxicity experiments were performed under the same conditions as antiviral experiments, but without virus infection. Cell viability was tested using a cell viability assay kit Cell Titer Glo (Promega).
(§2) The antiviral activity and cytotoxicity of the compounds were expressed by the inhibition rate (%) and cell viability (%) of the compounds against virus-induced cytopathic effects at different concentrations, respectively. Nonlinear fitting analysis on the inhibition rate and cell viability of the compounds were carried out with the GraphPad Prism, and the half effective concentration (EC50), the […] effective concentration (EC90), the half cytotoxic concentration (CC50) and the 90% cytotoxic concentration of the compound […] values were calculated.

[2] = test system: 229E; experiment: 229E MRC5 CPE assay (cytopathic experiment); assay type: cell-based, coronavirus 229E (HCoV-229E)
Experimental: as §1, §2

[3] = Betacoronavirus 1, Huh-7, 168 h, Huh7 cells, OC43 virus, 7 days, Cell Titer Glo
[4] = Human coronavirus 229E, MRC5, 72 h; read-out: 229E MRC5 CPE assay (μM) EC50
[5] = Human coronavirus 229E, MRC5, 72 h; read-out: 229E MRC5 CPE assay (μM) EC90
[6] = Betacoronavirus 1, OC43, Huh-7, 168 h
[7] = Human coronavirus 229E, MRC5, 72 h, read-out: 229E MRC5 CPE assay (μM) EC50
[8] = Human coronavirus 229E, MRC5, 72 h, read-out: 229E MRC5 CPE assay (μM) EC90

Structure (SMILES) | EC50 [1, 3] [µM] | EC90 [1, 3] [µM] | EC50 [2, 4] [µM] | EC90 [2, 5] [µM] | EC50 [1, 6] [µM] | EC90 [1, 6] [µM] | EC50 [2, 7] [µM] | EC90 [2, 8] [µM]
CCC(CC)COC(=O)[C@H](C)N[P@@](=O)(OC[C@H]1O[C@@](C#N)(c2ccc3c(N)ncnn23)[C@H](O)[C@@H]1O)Oc1ccc(Nc2ccnc3cc(Cl)ccc23)cc1CN(CC)CC [Compound 063] | > 0.5 | > 0.5 | > 0.5 | > 0.5 |  |  |  | 
CCO[P@@]1(=O)OC[C@H]2O[C@@](C#N)(c3ccc4c(N)ncnn34)[C@H](O)[C@@H]2O1 [Compound 230] | > 0.5 | > 0.5 | > 0.5 | > 0.5 |  |  |  | 
CC(C)(C)C(=O)OCO[P@@]1(=O)OCC2O[C@@](C#N)(c3ccc4c(N)ncnn34)[C@H](O)[C@@H]2O1 (stereo partly drawn) [Compound 197] |  |  |  |  | > 0.5 | > 0.5 | 0.1 to 0.5 | > 0.5
CCC(CC)COC(=O)[C@H](C)N[P@@](=O)(OCCN(CC)CCCC(C)Nc1ccnc2cc(Cl)ccc12)OC[C@H]1O[C@@](C#N)(c2ccc3c(N)ncnn23)[C@H](O)[C@@H]1O (stereo partly drawn) [Compound 068] |  |  |  |  | > 0.5 | > 0.5 | > 0.5 | > 0.5
N#C[C@@]1(c2ccc3c(N)ncnn23)OC2CO[P@@](=O)(OCOC(=O)c3cccnc3)O[C@H]2[C@H]1O (stereo partly drawn) [Compound 180] |  |  |  |  | > 0.5 | > 0.5 | > 0.5 | > 0.5
N#C[C@@]1(c2ccc3c(N)ncnn23)O[C@@H]2CO[P@@](=O)(Oc3ccccc3)O[C@H]2[C@H]1O [Compound 220] |  |  | > 0.5 | > 0.5 | > 0.5 | > 0.5 |  | 
N#C[C@@]1(c2ccc3c(N)ncnn23)O[C@@H]2CO[P@@](=O)(OCOC(=O)Oc3ccccc3)O[C@H]2[C@H]1O [Compound 229] |  |  |  |  | > 0.5 | > 0.5 | > 0.5 | > 0.5
CCC(CC)COC(=O)[C@H](C)NP(=O)(OCOC(=O)C(C)C)OC[C@H]1O[C@@](C#N)(c2ccc3c(N)ncnn23)[C@H](O)[C@@H]1O (stereo partly drawn) [Compound 104] |  |  |  |  | > 0.5 | > 0.5 | > 0.5 | > 0.5
[2H]c1cc([C@]2(C#N)O[C@@H]3CO[P@](=O)(OCC)O[C@H]3[C@H]2O)n2ncnc(N)c12 [Compound 232] | > 0.5 | > 0.5 | > 0.5 | > 0.5 |  |  |  | 
CCCC(CCC)C(=O)OCO[P@@](=O)(NC(C)(C)C(=O)OC(C)C)OC[C@H]1O[C@@](C#N)(c2ccc3c(N)ncnn23)[C@H](O)[C@@H]1O [Compound 123] |  |  |  |  | 0.1 to 0.5 | > 0.5 | 0.1 to 0.5 | 0.1 to 0.5
CCCC(CCC)C(=O)OCO[P@@](=O)(N[C@@H](C)C(=O)OCC(CC)CC)OC[C@H]1O[C@@](C#N)(c2ccc3c(N)ncnn23)[C@H](O)[C@@H]1O [Compound 071] |  |  |  |  | < 0.1 | < 0.1 | < 0.1 | < 0.1
CCCN(CCC)S(=O)(=O)c1ccc(C(=O)OCO[P@](=O)(N[C@@H](C)C(=O)OCC(CC)CC)OC[C@H]2O[C@@](C#N)(c3ccc4c(N)ncnn34)[C@H](O)[C@@H]2O)cc1 [Compound 160] |  |  |  |  | > 0.5 | > 0.5 | > 0.5 | > 0.5
CCC(CC)COC(=O)[C@H](C)N[P@]1(=O)OC[C@H]2O[C@@](C#N)(c3ccc4c(N)ncnn34)[C@H](O)[C@@H]2O1 [Compound 126] |  |  |  |  | < 0.1 | 0.1 to 0.5 | < 0.1 | 0.1 to 0.5
CCCC(CCC)C(=O)OCO[P@](=O)(NC(C)(C)C(=O)OCC(CC)CC)OC[C@H]1O[C@@](C#N)(c2ccc3c(N)ncnn23)[C@H](O)[C@@H]1O [Compound 120] |  |  |  |  | < 0.1 | 0.1 to 0.5 | < 0.1 | 0.1 to 0.5
CCCN(CCC)S(=O)(=O)c1ccc(C(=O)O[C@@H]2[C@@H]3OP(=O)(O)OC[C@H]3O[C@@]2(C#N)c2ccc3c(N)ncnn23)cc1 [Compound 158] |  |  |  |  | > 0.5 | > 0.5 | > 0.5 | > 0.5
CC(C)OC(=O)CO[P@@]1(=O)OC[C@H]2O[C@@](C#N)(c3ccc4c(N)ncnn34)[C@H](O)[C@@H]2O1 [Compound 147] |  |  |  |  | > 0.5 | > 0.5 | > 0.5 | > 0.5
CCC(CC)COC(=O)[C@H](C)N[P@@]1(=O)OC[C@H]2O[C@@](C#N)(c3ccc4c(N)ncnn34)[C@H](O)[C@@H]2O1 [Compound 140] |  |  |  |  | > 0.5 | > 0.5 | > 0.5 | > 0.5

Structure (SMILES) | EC50 [1, 3] [µM] | EC90 [1, 3] [µM] | EC50 [2, 4] [µM] | EC90 [2, 5] [µM] | EC50 [1, 6] [µM] | EC90 [1, 6] [µM] | EC50 [2, 7] [µM] | EC90 [2, 8] [µM]
CCCC(CCC)C(=O)OCO[P@](=O)(N[C@@H](Cc1ccccc1)C(=O)OCC(CC)CC)OC[C@H]1O[C@@](C#N)(c2ccc3c(N)ncnn23)[C@H](O)[C@@H]1O [Compound 139] |  |  |  |  | < 0.1 | < 0.1 | < 0.1 | 0.1 to 0.5
CCCC(CCC)C(=O)OCO[P@@]1(=O)OC[C@H]2O[C@@](C#N)(c3ccc4c(N)ncnn34)[C@H](O)[C@@H]2O1 [Compound 129] |  |  |  |  | < 0.1 | > 0.5 | < 0.1 | < 0.1
CC(C)OC(=O)C(C)(C)N[P@](=O)(OCOC(=O)C(C)(C)C)OC[C@H]1O[C@@](C#N)(c2ccc3c(N)ncnn23)[C@H](O)[C@@H]1O [Compound 194] |  |  |  |  | 0.1 to 0.5 | > 0.5 | 0.1 to 0.5 | > 0.5
CC(C)OC(=O)C(C)(C)N[P@@](=O)(OCOC(=O)CCCc1ccccc1)OC[C@H]1O[C@@](C#N)(c2ccc3c(N)ncnn23)[C@H](O)[C@@H]1O [Compound 269] |  |  |  |  | > 0.5 | > 0.5 | > 0.5 | > 0.5
CC(C)(C)C(=O)OCO[P@](=O)(OC[C@H]1O[C@@](C#N)(c2ccc3c(N)ncnn23)[C@H](O)[C@@H]1O)Oc1ccccc1 [Compound 215] |  |  | > 0.5 | > 0.5 | > 0.5 | > 0.5 |  | 
CCCC(CCC)C(=O)OCO[P@@](=O)(N[C@@H](C)C(=O)OCC)OC[C@H]1O[C@@](C#N)(c2ccc3c(N)ncnn23)[C@H](O)[C@@H]1O [Compound 098] |  |  |  |  | < 0.1 | 0.1 to 0.5 | < 0.1 | < 0.1
CC(C)OC(=O)CO[P@]1(=S)OC[C@H]2O[C@@](C#N)(c3ccc4c(N)ncnn34)[C@H](O)[C@@H]2O1 [Compound 149] |  |  | > 0.5 | > 0.5 | > 0.5 | > 0.5 |  | 
CCCC(CCC)C(=O)OCO[P@@](=O)(N[C@@H](C)C(=O)OC(C)C)OC[C@H]1O[C@@](C#N)(c2ccc3c(N)ncnn23)[C@H](O)[C@@H]1O [Compound 075] |  |  |  |  | 0.1 to 0.5 | > 0.5 | 0.1 to 0.5 | 0.1 to 0.5
CCCC(CCC)C(=O)OCO[P@@](=O)(N[C@@H](C)C(=O)OC)OC[C@H]1O[C@@](C#N)(c2ccc3c(N)ncnn23)[C@H](O)[C@@H]1O [Compound 096] |  |  |  |  | 0.1 to 0.5 | 0.1 to 0.5 | < 0.1 | < 0.1
[2H]c1cc([C@]2(C#N)O[C@H](COP(=O)(OCOC(=O)C(CCC)CCC)OCOC(=O)C(CCC)CCC)[C@@H](O)[C@H]2O)n2ncnc(N)c12 [Compound 212] |  |  |  |  | 0.1 to 0.5 | > 0.5 | 0.1 to 0.5 | > 0.5
[2H]c1cc([C@]2(C#N)O[C@@H]3CO[P@@](=O)(OCC)O[C@H]3[C@H]2O)n2ncnc(N)c12 [Compound 233] | > 0.5 | > 0.5 | > 0.5 | > 0.5 |  |  |  | 
[2H]c1cc([C@]2(C#N)O[C@@H]3CO[P@](=O)(O)O[C@H]3[C@H]2OC(=O)C(CCC)CCC)n2ncnc(N)c12 [Compound 208] |  |  |  |  | 0.1 to 0.5 | 0.1 to 0.5 | > 0.5 | > 0.5
CC(C)OC(=O)C(C)(C)N[P@](=O)(OCOC(=O)C1CCCC1)OC[C@H]1O[C@@](C#N)(c2ccc3c(N)ncnn23)[C@H](O)[C@@H]1O [Compound 268] |  |  |  |  | > 0.5 | > 0.5 | > 0.5 | > 0.5
CCC(CC)COC(=O)[C@H](C)N[P@@](=O)(OCOC(=O)OC(C)C)OC[C@H]1O[C@@](C#N)(c2ccc3c(N)ncnn23)[C@H](O)[C@@H]1O [Compound 076] |  |  |  |  | 0.1 to 0.5 | 0.1 to 0.5 | < 0.1 | 0.1 to 0.5
CC(C)OC(=O)C(C)(C)NP(=O)(OCOC(=O)C(C)(C)C)OC[C@H]1O[C@@](C#N)(c2ccc3c(N)ncnn23)[C@H](O)[C@@H]1O (stereo partly drawn) [Compound 195] |  |  |  |  | 0.1 to 0.5 | > 0.5 | 0.1 to 0.5 | > 0.5
CCC(CC)COC(=O)[C@H](C)NP(=O)(OC[C@H]1O[C@@](C#N)(c2ccc3c(N)ncnn23)[C@H](O)[C@@H]1O)Oc1ccc(Nc2ccnc3cc(Cl)ccc23)cc1CN(CC)CC (stereo partly drawn) [Compound 016] | > 0.5 | > 0.5 | > 0.5 | > 0.5 |  |  |  | 
